Experimental data reported in article PMC9305947, “Rational Design of Phe‐BODIPY Amino Acids as Fluorogenic Building Blocks for Peptide‐Based Detection of Urinary Tract Candida Infections” (Angewandte Chemie (International Ed. in English), 2022).
Converted amounts (≈) assume the structure as drawn. *1 amine or outer side, *2 acyl side, *3 side chain or, on linkers, in order; H or OH if unused. Where a SMILES comes first, the peptide text is derived from it. Where no end group is shown, it is not given here. [ ]: non-standard residue; d: D form. X1 = COc1ccc(C2=[N+]3C(=C(c4ccc(C[C@H](N[*:1])C(=O)[*:2])cc4)c4ccc(-c5ccc(OC)cc5)n4[B-]3(F)F)C=C2)cc1

What was measured:
C. albicans = format: cell-based, Candida albicans; details: 48 h
Experimental: (§1) Figure 4 a) Synthetic procedure for the preparation Fmoc‐Phe(pMP‐BODIPY)‐OH (11). Inset: pictures of solutions of probe 17 (30 μM) under excitation with a 365 nm UV‐lamp in PBS (left) and in liposomes (right). b) Minimum inhibitory concentration (MIC) values of peptides 12–16 against different Candida strains (5×10^5 cells mL^−1) in 20 % Vogel's medium after 48 h incubation at 37 °C. MIC was determined by brightfield microscopy from three independent experiments. c) Chemical structure of peptide 17 and fluorogenic response (25 μM) in PBS (black) and in aqueous suspensions containing liposomes (red). λ exc: 530 nm (n=3). d) MIC values of peptide 17 against different Candida strains and bacteria (5×10^5 cells mL^−1) in 10 % liquid LB medium after 48 h incubation at 37 °C. MIC was determined by brightfield microscopy from three independent experiments (n=3). e) Normalised fluorescence of probe 17 (30 μM) when incubated in diluted urine samples under continuous light irradiation. λ exc: 530 nm. Data presented as mean±SD (n=3). TEXT PRINTED IN THE PICTURE: (a) no label printed: QY 0.08% (OFF); QY 14.9% (ON) | (b) 12: MIC (μmol L^-1) C. inconspic.: 60; MIC (μmol L^-1) C. arius: > 60; MIC (μmol L^-1) C. albicans: 15; MIC (μmol L^-1) C. rugosa: 15; MIC (μmol L^-1) C. glabrata: 30; MIC (μmol L^-1) C. krusei: 30 | (b) 13: MIC (μmol L^-1) C. inconspic.: 2; MIC (μmol L^-1) C. arius: 4; MIC (μmol L^-1) C. albicans: 4; MIC (μmol L^-1) C. rugosa: 16; MIC (μmol L^-1) C. glabrata: 8; MIC (μmol L^-1) C. krusei: 4 | (b) 14: MIC (μmol L^-1) C. inconspic.: > 60; MIC (μmol L^-1) C. arius: > 60; MIC (μmol L^-1) C. albicans: > 60; MIC (μmol L^-1) C. rugosa: > 60; MIC (μmol L^-1) C. glabrata: > 60; MIC (μmol L^-1) C. krusei: > 60 | (b) 15: MIC (μmol L^-1) C. inconspic.: 4; MIC (μmol L^-1) C. arius: > 60; MIC (μmol L^-1) C. albicans: 16; MIC (μmol L^-1) C. rugosa: > 60; MIC (μmol L^-1) C. glabrata: 16; MIC (μmol L^-1) C. krusei: 8 | (b) 16: MIC (μmol L^-1) C. inconspic.: 2; MIC (μmol L^-1) C. arius: 32; MIC (μmol L^-1) C. albicans: 4; MIC (μmol L^-1) C. rugosa: 32; MIC (μmol L^-1) C. glabrata: 4; MIC (μmol L^-1) C. krusei: 8 | (c) peptide 17: λexc.: 530 nm; λem.: 625 nm | (d) peptide 17: MIC (μmol L^-1) C. inconspicua: 8; MIC (μmol L^-1) C. arius: 64; MIC (μmol L^-1) C. albicans: 16; MIC (μmol L^-1) C. rugosa: 64; MIC (μmol L^-1) C. glabrata: 32; MIC (μmol L^-1) C. krusei: 8; MIC (μmol L^-1) E. Coli: > 200 DOUBTS OF THE COPYIST ABOUT THIS PICTURE: Panel a, QY 0.08% / 14.9%: the picture prints no substance label beside the OFF/ON photographs, so the label is left empty / Panel d: the table itself prints no substance label; it is assigned to 'peptide 17', printed directly above it in panel c / Panel c, λexc. 530 nm and λem. […]

C. krusei = format: cell-based, Candida krusei; details: 48 h
Experimental: as §1

C. rugosa = format: cell-based, Candida rugosa; details: 48 h
Experimental: as §1

C. glabrata = format: cell-based, Candida glabrata; details: 48 h
Experimental: as §1

C. inconspicua = format: cell-based, Candida inconspicua; details: 48 h
Experimental: as §1

[1] = format: in vitro ADME, human; details: diluted urine (urine:water 1:6)
Source text: To the best of our knowledge, compound 11 represents the first example of a Phe‐based BODIPY amino acid for SPPS with strong emission in the red region of the visible spectrum. Prior to the incorporation of Phe‐(pMP)BODIPY amino acid 11 into peptides that could detect Candida fungal cells, we prepared a small collection of Phe‐containing antimicrobial peptides as fungal‐targeting scaffolds that could later accommodate BODIPY‐based aromatic FlAAs (Figure 4b). We selected peptide analogues derived from the natural occurring temporin L (Rana temporaria, peptide 12),[31] jelleine‐I (Apis mellifera, peptide 13)[32] and Aurein1.2 (Litoria aurea or Litoria raniformis, peptide 15).[33] […] We next analysed the biological profile of peptide 17 in fungal cells and its selectivity over bacteria. […] Furthermore, we evaluated the photo‐ and chemical stability of the peptide 17 in human urine upon continuous light irradiation. In these assays, we ran both fluorescence and HPLC analysis to confirm that the peptide 17 was fully stable for the clinical evaluation of urine samples using fluorescence‐based assays (Figure 4e and Figure S13).
[…] Environmental sensitivity was measured by comparing the fl uore sce nc e emission in Me OH vs gl yc e rol (c om pounds 4-7) a nd i n pre se nc e of l i posom e suspe nsi ons i n PB Sor PBS a l one (c om pound 17). […]

Compound	MIC C. albicans (C. albicans)	MIC C. krusei (C. krusei)	MIC C. rugosa (C. rugosa)	MIC C. glabrata (C. glabrata)	MIC C. inconspic. (C. inconspicua)	Photostability in human urine upon continuous light irradiation ([1]; 30 µM, 384-well plates, 37 °C, fluorescence emission 644 nm, λexc 530 nm, mean of three independent experiments n=3)	Chemical stability (integrity) in human urine ([1]; 100 µM, 37 °C, 0, 1 and 10 h, HPLC-MS, absorbance 570 nm)
WFKIIKK-NH2 [peptide 15]	16 µM	8 µM	> 60 µM	16 µM	4 µM		
H-FVQWFSKFLGKIL-NH2 [peptide 12, H-Phe-Val-Gln-Trp-Phe-Ser-Lys-Phe-Leu-Gly-Lys-Ile-Leu-NH2]	15 µM	30 µM	15 µM	30 µM	60 µM		
CC[C@H](C)[C@H](NC(=O)[C@H](CO)NC(=O)[C@@H](NC(=O)[C@H](CCCCN)NC(=O)[C@H](Cc1ccc(C2=C3C=CC(c4ccc(OC)cc4)=[N+]3[B-](F)(F)n3c2ccc3-c2ccc(OC)cc2)cc1)NC(=O)[C@@H]1CCCN1)[C@@H](C)CC)C(=O)N[C@@H](Cc1c[nH]cn1)C(=O)N[C@@H](CC(C)C)C(N)=O [peptide 17, H-Pro-Phe(pMP-BODIPY)-Lys-Ile-Ser-Ile-His-Leu-NH2] (H-P[X1]KISIHL-NH2)						fully stable	fully stable
CC[C@H](C)[C@@H]1NC(=O)[C@H](CCCCN)NC(=O)[C@H](Cc2ccccc2)NC(=O)[C@H](Cc2c[nH]c3ccccc23)NC(=O)[C@H](CCCCN)NC(=O)[C@H](CCCCN)NC(=O)[C@H]([C@@H](C)CC)NC1=O [compound 16] (cyclo(FKIIKKW))	4 µM (≈ 3.78 µg/mL)	8 µM (≈ 7.55 µg/mL)	32 µM (≈ 30.2 µg/mL)	4 µM (≈ 3.78 µg/mL)	2 µM (≈ 1.89 µg/mL)		
CC[C@H](C)[C@@H]1NC(=O)[C@H](CO)NC(=O)[C@H]([C@@H](C)CC)NC(=O)[C@H](CCCCN)NC(=O)[C@H](Cc2ccccc2)NC(=O)[C@@H]2CCCN2C(=O)[C@H](CC(C)C)NC(=O)[C@H](Cc2c[nH]cn2)NC1=O [peptide 14] (cyclo(FKISIHLP))	> 60 µM	> 60 µM	> 60 µM	> 60 µM	> 60 µM		
